Measured values as given in patent US20100256177A1, “Flavopereirine derivatives for cancer therapy” (priority 2004, published 2010).

Experiments:
Type in all cases: cell-based
[1] = system: MiaPaca2 (pancreas) human tumor cell line; test: three day MTT cytotoxicity assay, MiaPaca2 pancreas; settings: MiaPaca2 pancreas cells, 72 hours
Experimental: (§1) A number of the Flavopereirine derivatives were tested for cytotoxicity against nine (9) human tumor cell lines. Briefly, a three day MTT cytotoxicity assay was performed, which is based on the principle of uptake of MTT (3-(4,5-dimethylthiazol-2-yl)-2,5-diphenyl tetrazolium bromide), a tetrazolium salt, by the metabolically active cells where it is metabolized by active mitochondria into a blue colored formazan product that is read spectrophotometrically. MIT was dissolved in phosphate buffered saline with a pH of 7.4 to obtain an MTT concentration of 5 mg/ml; the resulting mixture was filtered through a 0.22-micron filter to sterilize and remove a small amount of insoluble residue. For each type of tumor cell, 10000 to 15000 cells were seeded in a 96-well culture plate and incubated with the individual Flavopereirine derivatives in concentration ranging from 1-20 μg/ml in a CO2 incubator for a total of 72 hours. Control cells not treated with the Flavopereirine derivatives were similarly incubated. The assay was terminated by adding 100 μg (20 μl) of MTT to each well, then incubating for additional one hour, and finally adding 50 μl of 10% SDS-0.01N HCl to each well to lyse the cells and dissolve formazan. After incubating for one hour, the plate was read spectrophotometrically at 540 nm and the percentage of cytotoxicity calculated using the following formula:
(§2) Cytotoxicity percentage=100×[1-(X/R1)], where X=(absorbance of treated sample at 540 nm)−(absorbance of blank at 540 nm) R1=absorbance of control sample at 540 nm.
(§3) The IC50 Values of the cytotoxicity defined as the concentration at which 50% of the cells are killed in vitro was calculated for each cell line treated with each of the Flavopereirine derivatives.
(§4) The cell lines are ovary (PA-1), breast (MCF-7), prostate (DU145), pancreas (MiaPaCa.2), oral cavity (KB), lung (L132), colon (SW620), and larynx (HeP2).

[2] = system: PA1 (ovary) human tumor cell line; test: three day MTT cytotoxicity assay, PA1 ovarian; settings: PA1 ovarian cells, 72 hours
Experimental: as §1, §2, §3, §4

[3] = system: MCF7 (breast) human tumor cell line; test: three day MTT cytotoxicity assay, MCF7 breast; settings: MCF7 breast cells, 72 hours
Experimental: as §1, §2, §3, §4

[4] = system: DU145 (prostate) human tumor cell line; test: three day MTT cytotoxicity assay, DU145 prostate; settings: DU145 prostate cells, 72 hours
Experimental: as §1, §2, §3, §4

[5] = system: SW620 (colon) human tumor cell line; test: three day MTT cytotoxicity assay, SW620 colon; settings: SW620 colon cells, 72 hours
Experimental: as §1, §2, §3, §4

[6] = system: KB (oral cavity) human tumor cell line; test: three day MTT cytotoxicity assay, KB oral; settings: KB oral cells, 72 hours
Experimental: as §1, §2, §3, §4

[7] = system: Hep2 (larynx) human tumor cell line; test: three day MTT cytotoxicity assay, Hep2 larynx; settings: Hep2 larynx cells, 72 hours
Experimental: as §1, §2, §3, §4

[8] = system: L132 (lung) human tumor cell line; test: three day MTT cytotoxicity assay, L132 lung; settings: L132 lung cells, 72 hours
Experimental: as §1, §2, §3, §4

[9] = system: ECV-304 (endothelial) cell line; test: three day MTT cytotoxicity assay, ECV-304 endothelial; settings: ECV-304 endothelial cells, 72 hours
Experimental: as §1, §2, §3

Compound | IC50 (μg/mL) of Flavoperereine derivatives in human tumor cell lines, MiaPaca2 Pancreas [1] [µg/mL] | IC50 (μg/mL) of Flavoperereine derivatives in human tumor cell lines, PA1 Ovarian [2] [µg/mL] | IC50 (μg/mL) of Flavoperereine derivatives in human tumor cell lines, MCF7 Breast [3] [µg/mL] | IC50 (μg/mL) of Flavoperereine derivatives in human tumor cell lines, DU145 Prostate [4] [µg/mL] | IC50 (μg/mL) of Flavoperereine derivatives in human tumor cell lines, SW620 Colon [5] [µg/mL] | IC50 (μg/mL) of Flavoperereine derivatives in human tumor cell lines, KB Oral [6] [µg/mL] | IC50 (μg/mL) of Flavoperereine derivatives in human tumor cell lines, Hep2 Larynx [7] [µg/mL] | IC50 (μg/mL) of Flavoperereine derivatives in human tumor cell lines, L132 Lung [8] [µg/mL] | IC50 (μg/mL) of Flavoperereine derivatives in human tumor cell lines, ECV-304 Endothelial [9] [µg/mL]
CCCCOc1ccc2c3[nH]c4ccccc4c3cc[n+]2c1.[Br-] [Compound 33] | 2 | <1 | 3 | 5 | 1.4 | 1.6 | 2.4 |  | 
Oc1ccc2[n+](c1)CCc1c-2[nH]c2ccccc12 [Compound 22, 3-hydroxy-6,7-dihydroindolo[2,3-a]quinolizinium] | >100 | >100 | >100 | >100 | >100 | >100 | >100 | >100 | 
Fc1ccc(COc2ccc3[n+](c2)CCc2c-3[nH]c3ccccc23)cc1.[O-][Cl+3]([O-])([O-])[O-] [Compound 25] | 30 | 36 | 34 | 41 | 44 | 8 | 44 | 9 | 24
CCOc1ccc2[n+](c1)CCc1c-2[nH]c2ccccc12 [Compound 24, 3-ethoxy-6,7-dihydroindolo[2,3-a]quinolizinium] |  | 38 |  |  | 30 | 50 | 89 | 20 | 64
c1ccc(COc2ccc3c4[nH]c5ccccc5c4cc[n+]3c2)cc1 [Compound 28, 3-benzyloxyindolo[2,3-a]quinolizinium] | 2 | 1.5 | 5 | 2 | <1 | 2 | 1.5 | 2 | 4
[Br-].c1ccc(COc2ccc3c4[nH]c5ccccc5c4cc[n+]3c2)cc1 [Compound 31] | <1 | 4 | 4 | 4.5 | 5 | <1 | 3 | 4.5 | 13.5
